Our source for the pest or weed control values is patent US8530667B2, “Herbicides” (Syngenta Limited, priority 2007, dated 2013).

Format in all cases: in vivo
The subject of assay [1] is Alopecurus myosuroides (ALOMY). Briefly: Example A pre-emergence herbicidal activity, glasshouse pot test. The note with it: Rate 250 g/ha, evaluated 19 or 20 days later, read-out: Pre-Emergence Activity ALOMY (100=total damage to plant; 0=no damage to plant). How it is done:
(§1) Seeds of a variety of test species were sown in standard soil in pots. After cultivation for one day (pre-emergence) or after 10 days cultivation (post-emergence) under controlled conditions in a glasshouse, the plants were sprayed with an aqueous spray solution derived from the formulation of the technical active ingredient in 0.6 ml acetone and 45 ml formulation solution containing 10.6% Emulsogen EL (Registry number 61791-12-6), 42.2% N-methylpyrrolidone, 42.2% dipropylene glycol monomethyl ether (Registry number 34590-94-8) and 0.2% X-77 (Registry number 11097-66-8). The test plants were then grown in a greenhouse under optimum conditions until, 14 or 15 days later for post-emergence and 19 or 20 days for pre-emergence, the test was evaluated (100=total damage to plant; 0=no damage to plant). Alopecurus myosuroides (ALOMY), Avena fatua (AVEFA), Lolium perenne (LOLPE), Setaria faberi (SETFA), Digitaria sanguinalis (DIGSA), Echinochloa crus-galli (ECHCG)

For assay [2], the system named is Avena fatua (AVEFA). Described as above. The note with it: Rate 250 g/ha, evaluated 19 or 20 days later, read-out: Pre-Emergence Activity AVEFA (100=total damage to plant; 0=no damage to plant). How it is done:
as §1

Assay [3] has as its system Digitaria sanguinalis (DIGSA). Described as above. The conditions noted are these: Rate 250 g/ha, evaluated 19 or 20 days later, read-out: Pre-Emergence Activity DIGSA (100=total damage to plant; 0=no damage to plant). How it is done:
as §1

The test system of assay [4] is Echinochloa crus-galli (ECHCG). Described as above. The note with it: Rate 250 g/ha, evaluated 19 or 20 days later, read-out: Pre-Emergence Activity ECHCG (100=total damage to plant; 0=no damage to plant). How it is done: as §1
For assay [5], the system named is Lolium perenne (LOLPE). Described as above. The note with it: Rate 250 g/ha, evaluated 19 or 20 days later, read-out: Pre-Emergence Activity LOLPE (100=total damage to plant; 0=no damage to plant). How it is done: as §1
Assay [6] concerns Setaria faberi (SETFA). The description is as above. The note with it: Rate 250 g/ha, evaluated 19 or 20 days later, read-out: Pre-Emergence Activity SETFA (100=total damage to plant; 0=no damage to plant). How it is done: as §1
Assay [7] concerns Alopecurus myosuroides (ALOMY). Nature of the assay: Example A post-emergence herbicidal activity, glasshouse pot test. The note with it: Rate 125 g/ha, evaluated 14 or 15 days later, read-out: Post-Emergence Activity ALOMY (100=total damage to plant; 0=no damage to plant). How it is done: as §1
Assay [8] has as its system Avena fatua (AVEFA). The assay is described as above. The conditions noted are these: Rate 125 g/ha, evaluated 14 or 15 days later, read-out: Post-Emergence Activity AVEFA (100=total damage to plant; 0=no damage to plant). How it is done: as §1
Assay [9] deals with Digitaria sanguinalis (DIGSA). The assay is described as above. The note with it: Rate 125 g/ha, evaluated 14 or 15 days later, read-out: Post-Emergence Activity DIGSA (100=total damage to plant; 0=no damage to plant). The procedure: as §1
Assay [10] deals with Echinochloa crus-galli (ECHCG). Described as above. The note with it: Rate 125 g/ha, evaluated 14 or 15 days later, read-out: Post-Emergence Activity ECHCG (100=total damage to plant; 0=no damage to plant). The procedure: as §1
Assay [11] concerns Lolium perenne (LOLPE). The description is as above. The note with it: Rate 125 g/ha, evaluated 14 or 15 days later, read-out: Post-Emergence Activity LOLPE (100=total damage to plant; 0=no damage to plant). The procedure: as §1
In assay [12] the test system is Setaria faberi (SETFA). The assay is described as above. The conditions noted are these: Rate 125 g/ha, evaluated 14 or 15 days later, read-out: Post-Emergence Activity SETFA (100=total damage to plant; 0=no damage to plant). How it is done:
as §1

The subject of assay [13] is Alopecurus myosuroides (ALOMY). Nature of the assay: Example B post-emergence herbicidal activity, glasshouse pot test. The note with it: 312 h, rate 1000 g/ha, evaluated after 13 days, read-out: Post-emergence activity ALOMY (100=total damage to plant; 0=no damage to plant). The essentials:
(§2)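 Seeds sown in standard soil in pots were sprayed 1 day (pre-emergence) or 8 days (post-emergence) after sowing with the active ingredient in acetone/water (50:50) plus 0.5% Tween 20. Plants were kept in a glasshouse at 24/16° C day/night, 14 h light, 65% humidity. Damage was scored after 13 days (0–100).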

The test system of assay [14] is Amaranthus retoflexus (AMARE). Described as above. The conditions noted are these: Amaranthus retroflexus, 312 h, rate 1000 g/ha, evaluated after 13 days, read-out: Post-emergence activity AMARE (100=total damage to plant; 0=no damage to plant). An outline of the steps:
as §2

Assay [15] relates to Avena fatua (AVEFA). The description is as above. The conditions noted are these: 312 h, rate 1000 g/ha, evaluated after 13 days, read-out: Post-emergence activity AVEFA (100=total damage to plant; 0=no damage to plant). An outline of the steps: as §2
The test system of assay [16] is Echinochloa crus-galli (ECHCG). Described as above. The conditions noted are these: 312 h, rate 1000 g/ha, evaluated after 13 days, read-out: Post-emergence activity ECHCG (100=total damage to plant; 0=no damage to plant). The essentials:
as §2

Assay [17] relates to Setaria faberi (SETFA). The description is as above. The note with it: 312 h, rate 1000 g/ha, evaluated after 13 days, read-out: Post-emergence activity SETFA (100=total damage to plant; 0=no damage to plant). The essentials:
as §2

For `COc1ccc(-c2nc(C3C(=O)[C@@H]4[C@H](C3=O)[C@H]3CC[C@@H]4O3)c(C)s2)cc1` (some centres unmarked) [Compound T21], the pest or weed control at 250 g/ha in assay [1] was 90%; in assay [2], 70%; in assay [3], 100%; in [4], 100%; in assay [5], 90%; in assay [6], 100%. The pest or weed control at 125 g/ha was 50% in [7]; 20% in [8]; 80% in assay [9]; 100% in [10]; 40% in assay [11]; 80% in [12]. The pest or weed control at 1000 g/ha in assay [13] is 100%; in assay [14], 0%; in [15], 100%; in [16], 100%; in assay [17] it was 100%.
